Here are results for three compounds from patent US20020072512A1, “Method of preventing and treating HIV-mediated central nervous system damage” (priority 2000, published 2002).

Experiment [1] concerns astroglial cells exposed to supernatant of HIV-infected macrophages. Description: Ultrastructural studies (electron microscopy) of astroglial cells. It counts as cell-based, human. The conditions noted are these: co-incubation, AZT 50 μM; for pro-apoptotic effect of supernatant of HIV-infected M/M on astroglial cell ultrastructure: M40401 10-100 μM, L-NAME 100 μM. Here is the method:
(§1) The astrocytic cell line Lipari was derived from a patient who presented a large right front-temporal mass (astrocytoma), and grown as previously described (Mollace, V., Colasanti, M., Rodinò, P., Lauro, G. M. & Nisticò, G. (1994b). Biochem. Biophys. Res. Commun. 203, 87-92.). Cells were expanded and cultured by seeding them in 25cm plastic flasks at a density of 0.7×10^6 cells/flask in complete medium, and incubated at 37° C. in humidified air containing 5% CO2.
(§2) A monocytotropic strain of HIV-1, named HIV-1Ba-L was used in all experiments. M/M cultures were exposed to HIV and virus expansion was performed. After 2 hours, virus was removed by washing cultures with warm medium and then cultures of M/M infected by HIV were carried out for further 13-15 days.
(§3) The supernatant of HIV-infected M/M was collected 13 days after virus infection and then incubated for 3 hours with cultured astrocytes. The supernatant of Mock-infected M/M was used as control treatment. […] HIV-p24 antigen production in supernatants of M/M was assesed using a commercially available ELISA Kit (HIV-p24 gag Abbott Lab, Pomezia, Italy).
Cells for electron microscopy were fixed in 2.5% glutaraldehyde in PBS pH7.4 at 4° C. and then washed for 2 hours in PBS and post fixed in osmium tetroxide 1,33% for 2 hours at 4° C. After several washes in PBS, the cells were dehydrated in graded alcohol, transferred into toluene, and embedded in Epon 812 resin. The resin was allowed to polymerize in a dry oven at 60° C. for 24 hours. Thin sections were cut with a glass knife Reichert microtome, stained with Touloidine Blue and examined on Axioscope microscope. Ultra-thin sections were cut on a Reichert microtome using a diamond knife, stained with uranyl-acetate-lead-hydroxide and evaluated and photographed on a Philips electron microscope CM 10 (Philips).

Experiment [2] relates to astroglial cells incubated with supernatants of HIV-infected macrophages. Kind of experiment: Malondialdehyde (MDA) in astroglial cells incubated with supernatants of HIV-infected macrophages. It counts as cell-based, human. The following applies: M40401 100 μM, L-NAME 100 μM, AZT 50 μM, MDA in nmol g-1. Here is the method:
as §1, §2, §3

Experiment [3] relates to Lipari astroglial cell line incubated with supernatant of HIV-1 infected macrophages. Kind of experiment: FACS analysis of apoptotic cell death of astrocytes exposed to supernatant of HIV-infected macrophages. It counts as cell-based, human. The following applies: M40401 10-100 μM, L-NAME 100 μM, AZT 50 μM. Here is the method: as §1, §2
The supernatant of HIV-infected M/M was collected 13 days after virus infection and then incubated for 3 hours with cultured astrocytes. The supernatant of Mock-infected M/M was used as control treatment. […]
The astrocytic cells either treated or untreated with supernatants of HIV-infected macrophages were gently detached from plastic 8 days after exposure. […] Propidium iodide-stained cells were analysed with a FACScan Flow Cytometer; fluorescence was measured between 565 and 605nm. The data were acquired and analysed by the Lysis II program.
In general terms: A flow cytometer gives signals particle by particle.

The conditions of experiment [4]: same conditions (pH=7.4 and 21° C.); cited from earlier work.
A short description of experiment [5]: Reaction with hydrogen peroxide (spectrophotometric or cyclic voltammetric monitoring). It counts as biochemical. The following applies: spectrophotometric or electrochemical (cyclic voltammetric) techniques.
A short description of experiment [6]: Catalytic catalase activity assay using oxygen electrodes. It counts as biochemical. The conditions noted are these: total oxygen evolved.

As for `Cc1cn([C@H]2C[C@H](N=[N+]=[N-])[C@@H](CO)O2)c(=O)[nH]c1=O` [AZT], in experiment [1] (FIG. 5, M40401 100 μM), the “pro-apoptotic effect of HIV-infected macrophages on astroglial cell ultrastructure” value is given as “failed to inhibit”. The “pro-apoptotic effect of supernatant of HIV-infected M/M on astroglial cell ultrastructure” value in experiment [1] was “failed to inhibit”. Also, in experiment [2], the “MDA overproduction (lipid peroxydation)” value is given as “failed to antagonize”.

For the compound `COC(=O)[C@@H](N)CCCNC(=N)N[N+](=O)[O-]` [L-NAME], the “apoptotic cell death of astroglial cells as evaluated by FACS analysis” value in experiment [3] was “failed to modify”. Besides, the “pro-apoptotic effect of supernatant of HIV-infected M/M on astroglial cell ultrastructure” value in experiment [1] is on record as “failed to inhibit”. Also, the “MDA overproduction (lipid peroxydation)” value in experiment [2] was “failed to antagonize”.

On to `[Cl-].[Cl-].[Mn+2].c1cc2nc(c1)CN[C@@H]1CCCC[C@H]1NCCN[C@@H]1CCCC[C@H]1NC2` [M40403], for which, in experiment [4], the “reaction with hydrogen peroxide” value is “do not react”. In addition, in experiment [5], the “stoichiometric reaction with H2O2” value is on record as “no stoichiometric reaction is observed”. The “catalytic catalase activity with H2O2” value in experiment [6] is on record as “no catalytic activity is observed”.
